# Results: ChEMBL document CHEMBL1129278, “Binding of arylpiperazines, (aryloxy)propanolamines, and tetrahydropyridylindoles to the 5-HT1A receptor: contribution of the molecular lipophilicity potential to three-dimensional quantitative structure-affinity relationship models” (J Med Chem, 1996)
# Biological target: T1, 5-hydroxytryptamine receptor 1A (Rattus norvegicus, UniProt P19327)
# T1 sequence (P19327 whole entry): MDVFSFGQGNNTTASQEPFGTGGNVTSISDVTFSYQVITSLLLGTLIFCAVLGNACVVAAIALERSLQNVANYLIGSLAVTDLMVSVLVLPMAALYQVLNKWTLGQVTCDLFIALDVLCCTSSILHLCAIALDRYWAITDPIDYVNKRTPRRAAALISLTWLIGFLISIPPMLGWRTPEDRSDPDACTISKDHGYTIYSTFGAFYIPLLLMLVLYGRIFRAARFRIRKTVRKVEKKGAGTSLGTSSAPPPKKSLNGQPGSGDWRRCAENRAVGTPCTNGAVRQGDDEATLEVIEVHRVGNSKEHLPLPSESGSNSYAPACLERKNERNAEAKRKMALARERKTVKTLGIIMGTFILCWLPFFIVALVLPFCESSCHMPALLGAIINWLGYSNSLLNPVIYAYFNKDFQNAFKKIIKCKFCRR
row,Structure (SMILES),Ki
1,Cc1ccc2[nH]cc(C3=CCN(C)CC3)c2c1,31.6 nM
2,COc1ccccc1N1CCN(CCCc2ccccc2)CC1,3.72 nM
3,Fc1ccc2[nH]cc(C3=CCNCC3)c2c1,32.4 nM
4,NCCc1c[nH]c2ccc(N)cc12,708 nM
5,CC(C)NCC(O)COc1ccccc1-n1cccc1 (centres undefined) [ISAMOLTAN],49 nM
6,CC(CN)c1c[nH]c2ccc(O)cc12 (centres undefined),85.1 nM
7,CCCN(CCC)C1COc2cccc(O)c2C1 (centres undefined),2 nM
8,CCCN(CCCCN1C(=O)CC2(CCCC2)CC1=O)C1COc2cccc(O)c2C1 (stereo in doubt; 228),10 nM
9,CC(C)NCC(O)COc1cccc2[nH]ccc12 (centres undefined) [PINDOLOL],21.9 nM
10,CN(C)CCc1c[nH]c2ccc3c(c12)CCCO3,955 nM
11,O=C1c2ccccc2C(=O)N1CCN1CCN(c2ccccc2)CC1,10000 nM
12,O=C1CC2(CCCC2)CC(=O)N1CCN1CCN(c2ncccn2)CC1,151 nM
13,COc1ccccc1N1CCNCC1,12.9 nM
14,NCCc1c[nH]c2ccc(C(N)=O)cc12,0.295 nM
15,COc1ccccc1N1CCN(CCCCNC(=O)C(C)c2ccccc2)CC1 (centres undefined),10 nM
16,COc1ccccc1N1CCN(CCCCNc2ccc([N+](=O)[O-])c3nonc23)CC1,0.398 nM
17,O=C(NCCN1CCN(/C(O)=C2/COCCO2)CC1)c1ccc(F)cc1,9.12 nM
18,COc1ccccc1N1CCN(CCN2C(=O)c3ccccc3C2=O)CC1,1000 nM
19,c1ccc2c(c1)CCC2N1CCN(c2cccc3c2OCCO3)CC1 (centres undefined),1.82 nM
20,COc1ccccc1N1CCN(CCCCNC2CC3CCC2C3)CC1 (centres undefined),3.98 nM
21,CCCN(CCC)C1COc2ccccc2C1 (centres undefined),200 nM
22,CC(C)NCC(O)COc1cccc2[nH]c(OC(=O)OC(C)C)cc12 (centres undefined),17.4 nM
23,COc1cccc2c1CC(N)CC2 (centres undefined),178 nM
24,COc1ccccc1N1CCN(CCc2ccccc2)CC1,1.82 nM
25,O=C1c2ccccc2C(=O)N1CCCCN1CCN(c2ccccn2)CC1,6.17 nM

row,Structure (SMILES),Ki
1,C=C=CN1CCN(c2cccc(Cl)c2)CC1,251 nM
2,CCCCCCCCN1CCN(c2cccc3c2OCCO3)CC1,1 nM
3,Oc1ccc2[nH]cc(C3=CCNCC3)c2c1,15.1 nM
4,CN(C)CC(O)COc1ccccc1O (centres undefined),4900 nM
5,CN1CCN(c2cccc3ccoc23)CC1,7.94 nM
6,CCCN(CCC)C1CCc2cccc(C(C)=O)c2C1 (centres undefined),0.708 nM
7,C[C@H](CCc1ccccc1)NC[C@H](O)c1ccc(O)c(C(N)=O)c1 [DILEVALOL],295 nM
8,NCCc1c[nH]c2ccc3c(c12)CCCO3,302 nM
9,CCCN(CCCCN1CCOCC1)C1COc2cccc(OC)c2C1 (centres undefined),3.98 nM
10,CCN(CC)C(=O)Nc1ccc(OCC(O)CNC(C)(C)C)c(C(C)=O)c1 (centres undefined) [CELIPROLOL],8910 nM
11,CC(C)NCC(O)COc1ccccc1 (centres undefined),170 nM
12,CCCCN1CCN(c2ccccc2OC)CC1,129 nM
13,Cn1cc(C(F)(F)F)nc1-c1ccc(OCC(O)CNCCOc2ccc(O)c(C(N)=O)c2)cc1 (centres undefined) [CGP-20712A],603 nM
14,CCCN(CCC)C1CCc2cccc(OC)c2C1 (centres undefined),2.63 nM
15,COc1cccc2c1CC(N1CCCC1)CO2 (centres undefined),3.47 nM
16,COc1ccccc1N1CCN(CCCCNC(=O)C2CCCCC2)CC1,0.603 nM
17,COc1ccccc1N1CCN(CCCOc2cccc3ccccc23)CC1,8.91 nM
18,CCCCN(CCCC)CC(O)COc1cccc2ccccc12 (centres undefined),224 nM
19,CCCN(CCC)C1CCc2cccc(C3CCCCC3)c2C1 (centres undefined),24 nM
20,CCCN(CCC)C1CCc2cccc(C)c2C1 (centres undefined),61.7 nM
21,CC(C)(C)NCC(O)COc1cccc2c1SCCC2 (centres undefined) [TERTATOLOL],18.6 nM
22,CCCOCOCCc1ccc(OCC(O)CNC(C)C)cc1 (centres undefined),10000 nM
23,c1ccc(N2CCNCC2)cc1 [PHENYLPIPERAZINE],1510 nM
24,CC1(C)CC(=O)N(CCCCN2CCN(c3ccccn3)CC2)C(=O)C1,70.8 nM
25,CN(C)CC(O)CO (stereo in doubt; 123),4900 nM

row,Structure (SMILES),Ki
1,CCCN(CCCCNC(=O)c1ccc(F)cc1)C1COc2cccc(OC)c2C1 (centres undefined),0.2 nM
2,CCCN(CCC)C1CCc2cccc(C(=O)O)c2C1 (centres undefined),302 nM
3,CCCN(C1COc2cccc(OC)c2C1)N1C(=O)C2CCCC2C1=O (stereo in doubt; 255),0.501 nM
4,CN1CC=C(c2c[nH]c3ccc(N)cc23)CC1,24500 nM
5,CC(C)(C)NC[C@H](O)COc1ccccc1C1CCCC1 [PENBUTOLOL],2.4 nM
6,COc1ccccc1OCCNCC(O)COc1cccc2[nH]c3ccccc3c12 (centres undefined) [CARVEDILOL],3.16 nM
7,COc1ccc2[nH]cc(CCN(C)C)c2c1 [MEBUFOTENIN],5.5 nM
8,CN(C)CCc1c[nH]c2ccc(O)cc12 [BUFOTENINE],25.1 nM
9,CCCN(CCCNS(=O)(=O)c1ccc(C)cc1)C1COc2cccc(OC)c2C1 (centres undefined),1.51 nM
10,CN1CC=C(c2c[nH]c3ccc(Cl)cc23)CC1,26.3 nM
11,CCCN(CCCCN1C(=O)CC2(CCCC2)CC1=O)C1COc2cccc(O)c2C1 (stereo in doubt; 258),0.501 nM
12,CCCN(CCCCN1C(=O)CC2(CCCC2)CC1=O)C1COc2ccccc2C1 (centres undefined),1 nM
13,CCCN(CCCCN1C(=O)CC(C)(C)CC1=O)C1COc2cccc(OC)c2C1 (centres undefined),2 nM
14,CNCC(COc1cccc(C(F)(F)F)c1)c1ccccc1 (centres undefined),66100 nM
15,N#Cc1ccc2[nH]cc(C3=CCNCC3)c2c1,16.2 nM
16,COc1ccccc1N1CCN(CCCN2C(=O)c3ccccc3C2=O)CC1,20 nM
17,CCCN(CCC)C1CCc2cccc(C#N)c2C1 (centres undefined),37.2 nM
18,COc1ccccc1N1CCN(CCCCc2ccccc2)CC1,1 nM
19,CCCNC1CCc2cccc(OC)c2C1 (centres undefined),4.79 nM
20,CC(C)CN1CCN(c2cccc(Cl)c2)CC1,64.6 nM
21,COc1ccccc1N1CCN(CCCCN2C(=O)CC3(CCCC3)CC2=O)CC1,2 nM
22,COc1ccc2cccc(N3CCN(CCNC(=O)c4cccs4)CC3)c2c1,0.562 nM
23,CN(C)CC(O)COc1cccc2ccccc12 (centres undefined),347 nM
24,Cc1ccc(OCC(O)CNC(C)C)c2c1CCC2 (centres undefined),19100 nM
25,CCCN(CCCCN1C(=O)c2ccccc2C1=O)C1COc2cccc(O)c2C1 (centres undefined),44.7 nM

row,Structure (SMILES),Ki
1,Oc1ccc2cccc(N3CCNCC3)c2c1,3.31 nM
2,CC(C)(C)NC[C@H](O)COc1nsnc1N1CCOCC1 [TIMOLOL],617 nM
3,Clc1cccc(N2CCN(C3CC3)CC2)c1,158 nM
4,CCCN(CCNS(=O)(=O)c1ccc(C)cc1)C1COc2cccc(OC)c2C1 (centres undefined),1 nM
5,NCCCCN1CCN(c2ccccc2)CC1,6030 nM
6,C#Cc1cccc2c1CC(N(CCC)CCC)CC2 (centres undefined),15.8 nM
7,COc1cccc2c1CC(N1CCCCC1)CC2 (centres undefined),77.6 nM
8,CCCN(CCCCNS(=O)(=O)c1ccc(C)cc1)C1COc2cccc(OC)c2C1 (centres undefined),1 nM
9,CNCCc1c[nH]c2ccc(O)cc12,4.9 nM
10,CN1CCN(c2nc3cc(C(F)(F)F)ccc3n3cccc23)CC1,9.55 nM
11,CC(C)(C)NCC(O)COc1ccc2c(c1)C[C@H](O)[C@H](O)C2 (some centres undefined),1070 nM
12,CN1CC=C(c2c[nH]c3ccc(Br)cc23)CC1,15.1 nM
13,CCCN(CCN1C(=O)c2ccccc2C1=O)C1COc2cccc(OC)c2C1 (centres undefined),398 nM
14,CN1CCN(c2cccc3c2OCCO3)CC1,22.9 nM
15,CCCN(CCN1C(=O)CC2(CCCC2)CC1=O)C1COc2cccc(OC)c2C1 (centres undefined),15.1 nM
16,O=C1C=CC(c2[nH]c3ccccc3c2C2=CCNCC2)=NC1,1510 nM
17,CCCN1CC=C(c2c[nH]c3ccc(C(=O)OC)cc23)CC1,380 nM
18,C=CCOc1ccccc1OCC(O)CNC(C)C (centres undefined) [OXPRENOLOL],93.3 nM
19,O=C1CC2(CCCC2)CC(=O)N1CCCN1CCN(c2ncccn2)CC1,214 nM
20,CN(C)CCc1cn(C)c2ccc3c(c12)CCCO3,2690 nM
21,CCCCCCCCN1CCN(c2ccccc2)CC1,11.2 nM
22,CN1CC=C(c2c[nH]c3ccc(C4COCCO4)cc23)CC1 (centres undefined),87.1 nM
23,Brc1ccc2[nH]cc(C3=CCNCC3)c2c1,6.46 nM
24,CCCN(CCC)C1CCc2cccc(C(=O)OC)c2C1 (centres undefined),1.7 nM
25,CCCCN1CCN(c2cccc3ccccc23)CC1,7.08 nM

row,Structure (SMILES),Ki
1,COc1ccccc1OCC(O)CN(C)C (centres undefined),3020 nM
2,CCCN(CCCN1C(=O)CC2(CCCC2)CC1=O)C1COc2cccc(OC)c2C1 (centres undefined),0.501 nM
3,Cc1[nH]c2ccc(O)cc2c1CCN,2510 nM
4,CNCC(O)CO (centres undefined),3310 nM
5,CCCN(CCC)C1CCc2ccccc2C1 (centres undefined),56.2 nM
6,CC(C)C(=O)N1CCN(c2cccc(Cl)c2)CC1,100000 nM
7,CCCN(CCCCN1C(=O)c2ccccc2C1=O)C1COc2cccc(OC)c2C1 (centres undefined),2.51 nM
8,CN(C)CCc1c[nH]c2cc3c(cc12)CCCO3,603 nM
9,C1=C(c2c[nH]c3ccccc23)CCNC1,141 nM
10,CCCN(CCCCCCN1C(=O)CC2(CCCC2)CC1=O)C1COc2cccc(OC)c2C1 (centres undefined),0.501 nM
11,CCCN(CCCON1C(=O)CC2(CCCC2)CC1=O)C1COc2cccc(OC)c2C1 (centres undefined),0.501 nM
12,CC(C)NCC(O)COc1cccc2[nH]c(C#N)cc12 (centres undefined),2.14 nM
13,O=[N+]([O-])c1ccc2[nH]cc(C3=CCNCC3)c2c1,18.2 nM
14,c1ccc2cc(N3CCNCC3)ccc2c1,3240 nM
15,CC(C)(C)NCC(O)COc1cccc2c1NC(=O)CC2 (centres undefined),224 nM
16,CCCN(CCC)CC(O)CO (centres undefined),2750 nM
17,CCCN(CCNC(C)=O)C1COc2cccc(OC)c2C1 (centres undefined),20 nM
18,Clc1ccc2[nH]cc(C3=CCNCC3)c2c1,13.2 nM
19,CCCN(CCCCN1CCCCC1)C1COc2cccc(OC)c2C1 (centres undefined),1 nM
20,CCCN(CCC)C1CCc2cccc(CO)c2C1 (centres undefined),129 nM
21,COc1c(Cl)cccc1N1CCNCC1,871 nM
22,CCCN(CCC)C1CCc2cccc(C(=O)C3CCCCC3)c2C1 (centres undefined),15.8 nM
23,CN(C)CC(O)CO (stereo in doubt; 122),5010 nM
24,CCCN(C1COc2cccc(OC)c2C1)N1C(=O)C2CCCC2C1=O (stereo in doubt; 247),1 nM
